According to US20210052621A1, “METHODS FOR TREATING FLAVIVIRUSES AND ZIKA INFECTIONS” (THE REGENTS OF THE UNIVERSITY OF CALIFORNIA, priority 2017, published 2021):
“Also recorded” adds a separate entry of the source. Where a name gives a salt, the structure may show the parent alone.

Key:
ZIKA in Vero cells = experiment: Screening of additional compounds for ZIKA levels using Vero cells (viral RNA released, qRT-PCR); assay type: cell-based, Zika virus; conditions: 10 μM, viral RNA released by qRT-PCR
Description: FIG. 6. Screening of additional compounds for ZIKA levels using Vero cells (in 10 μM concentration). Methods of screening were as described herein. Viral RNA released was analyzed by qRT-PCR for ZIKA. Compounds (left to right): control, berberine, fluoxetine, formoterol, genistine, U0126, dibucaine, pirlindole, suramin, mycophenolic acid, polyhydroxyalkanoates, (PHA) and niclosamide.
FIG. 7. Screening of additional compounds for ZIKA levels using Vero cells (in 10 μM concentration) as described for FIG. 6. Compounds (left to right): clomiphene, amphotericin B, and toremifene.
FIG. 8. Screening of additional compounds for ZIKA levels using Vero cells (in 10 μM concentration) as described for FIG. 6.
FIG. 6 depicts ZIKV levels as determined by qRT-PCR for ZIKA in Vero cells at 10 μM concentration (left to right) of control, berberine, fluoxentine, formoterol, genistine, U0126, dibucaine, pirlindole, suramin, mycophenolic acid, PHA, and niclosamide.
FIG. 7 depicts dose response studies on ZIKV levels for clomiphene, amphotericin B, and toremifene.
FIG. 8 depicts ZIKV levels after administration of various agents. […] Zidovudine. Acyclovir. Drostanolone Propionate, Dapivirine (TMC120), Tilorone hydrochloride, and Docosanol.

[1] = system: Zika virus in 293 T cells; experiment: Dose dependent inhibition of Zika virus in 293 T cells, IC50 calculated; assay type: cell-based; conditions: MOI of 5, different concentration of drugs
Description: FIGS. 2A-2D. […] FIG. 2A—Lopinavir. FIG. 2B—Daclatasvir. FIG. 2C—Oxyclozanide. FIG. 2D—Rafoxanide.
Conditions: Zika virus in 293 T cells at the MOI of 5 using different concentration of drugs. IC50 was calculated.

ZIKA in 293 cells = experiment: ZIKA inhibition in 293 cells visualized by immune staining; assay type: cell-based, Zika virus; conditions: 20 μM
Source text: FIGS. 9A-9K. […] Drugs: mock (FIG. 9A), DMSO (FIG. 9B), PHA-690509 (FIG. 9C), formoterol (FIG. 9D), fluoxetine (FIG. 9E), genistein (FIG. 9F), U0126 (FIG. 9G), berberine (FIG. 9H), dibucaine (FIG. 9I), pirlindole (FIG. 9J), and suramin (FIG. 9K). Left panels: DAPI; right panels: ZIKV.
Agents in order (top to bottom): mock, DMSO, PHA-690509, formoterol, fluoxetine, genistein, U0126, berberine, dibucaine, pirlindole, and suramin.

[2] = system: ZIKV in human microglial cell line; experiment: ZIKV replication in microglia treated with nucleoside metabolic inhibitors (RT-qPCR, immunohistochemistry); assay type: cell-based, Zika virus; conditions: MOI of 1, 1 μM and 10 μM, 48 hpi
Description: FIGS. 14A-14D. Nucleoside Metabolic Inhibitors Attenuate ZIKV Replication. (FIG. 14A) ZIKV replication assessed by RT-qPCR analysis 48 hours post-infection in mock, ZIKV only, ZIKV plus 1 μM floxuridine or ZIKV plus 10 μM floxuridine treated microglia. Data are presented as the mean±SEM of n=3. *p<0.05, **p<0.01 by t-test. (FIG. 14B) Immunohistochemistry of ZIKV gene expression in mock, ZIKV only, ZIKV plus 1 μM floxuridine (FUDX1) or ZIKV plus 10 μM floxuridine (FUDX10) treated microglia. Cells were stained with anti-flavivirus envelope protein (ZIKVE), and nuclei were visualized with Hoechst 33258. (FIG. 14C) ZIKV replication assessed by RT-qPCR analysis 48 hours post-infection in mock, ZIKV only, ZIKV plus fluorouracil or ZIKV plus 10 μM fluorouracil treated microglia. Data are presented as the mean±SEM of n=3. *p<0.05, **p<0.01 by t-test. […]
Since metabolic processes are the most dysregulated pathways during ZIKV infection at the transcriptome level, we hypothesized that inhibition of these pathways could be exploited for therapeutic effects. […] The effect of the antimetabolites floxuridine (FIGS. 14A-14B) and flurouracil (FIGS. 14C-14D) on ZIKV replication was assessed 48 hpi at the RNA and protein level by RT-qPCR and immunohistochemistry, respectively.
Drug Treatment. […] ZIKV RNA was quantified by using specific primers by SYBR Green PCR Master Mix (Bio-Rad) using a Roche LightCycler 480. […]

| SMILES | ZIKV levels / ZIKV load (Hits) (ZIKA in Vero cells) | ZIKA inhibition visualized by immune staining (ZIKA in 293 cells) | also measured |
| --- | --- | --- | --- |
| Cc1cc(C)c(Nc2ccnc(Nc3ccc(C#N)cc3)n2)c(C)c1 [Dapivirine (TMC120), 4-{[4-(mesitylamino)-2-pyrimidinyl]amino}benzonitrile] | reduce ZIKV load |  |  |
| CCCCCCCCCCCCCCCCCCCCCCO [Docosanol] | reduce ZIKV load |  |  |
| Nc1nc2c(ncn2COC(CO)CO)c(=O)[nH]1 [Ganciclovir, 9-(1,3-dihydroxy-2-propoxymethyl)guanine] | reduce ZIKV load |  |  |
| Cc1cccc(C)c1OCC(=O)N[C@@H](Cc1ccccc1)[C@@H](O)C[C@H](Cc1ccccc1)NC(=O)[C@H](C(C)C)N1CCCNC1=O [Lopinavir, (2S)—N-[(2S,4S,5S)-5-[2-(2,6-dimethylphenoxy)acetamido]-4-hydroxy-1,6-diphenylhexan-2-yl]-3-methyl-2-(2-oxo-1,3-diazinan-1-yl)butanamide] |  |  | Dose dependent inhibition of Zika virus [1]: Dose dependent inhibition |
| O=C(Nc1cc(Cl)cc(Cl)c1O)c1c(O)c(Cl)cc(Cl)c1Cl [Oxyclozanide] |  |  | Dose dependent inhibition of Zika virus [1]: Dose dependent inhibition |
| CC(=O)Nc1ccc([C@H](C)C(=O)Nc2ncc(C(C)C)s2)cc1 [PHA-690509] |  | ZIKA inhibition |  |
| CCN(CC)CCOC(=O)c1ccc(N)cc1 [Procaine hydrochloride, 4-amino-, 2-(diethylamino) ethyl ester monohydrochloride] | reduce ZIKV load |  |  |
| O=C(Nc1ccc(Oc2ccc(Cl)cc2)c(Cl)c1)c1cc(I)cc(I)c1O [Rafoxanide] |  |  | Dose dependent inhibition of Zika virus [1]: Dose dependent inhibition |
| CCN(CC)CCOc1ccc2c(c1)C(=O)c1cc(OCCN(CC)CC)ccc1-2.Cl [Tilorone hydrochloride, 2,7-Bis(2-diethylaminoethoxy)fluoren-9-one hydrochloride] | reduce ZIKV load |  |  |
| N#CC(=C(/N)Sc1ccccc1N)/C(C#N)=C(\N)Sc1ccccc1N [U0126] |  | ZIKA inhibition |  |
| Cc1cn([C@H]2C[C@H](N=[N+]=[N-])[C@@H](CO)O2)c(=O)[nH]c1=O [Zidovudine, 3′-deoxy-3′-azido-thymidine] | reduce ZIKV load |  |  |
| COc1ccc2cc3[n+](cc2c1OC)CCc1cc2c(cc1-3)OCO2 [berberine] |  | ZIKA inhibition |  |
| CCCCOc1cc(C(=O)NCCN(CC)CC)c2ccccc2n1 [dibucaine] |  | ZIKA inhibition |  |
| O=c1[nH]c(=O)n([C@H]2C[C@H](O)[C@@H](CO)O2)cc1F [floxuridine] |  |  | ZIKV replication (RT-qPCR and immunohistochemistry) [2]: inhibited ZIKV more efficiently in a dose dependent manner than flurouracil; also recorded: dose-dependent inhibition of ZIKV replication; also recorded: abrogated ZIKV replication |
| CNCCC(Oc1ccc(C(F)(F)F)cc1)c1ccccc1 (centres unmarked) [fluoxetine, N-methyl-3-phenyl-3-[4-(trifluoromethyl)phenoxy]propan-1-amine] |  | ZIKA inhibition |  |
| O=c1[nH]cc(F)c(=O)[nH]1 [flurouracil] |  |  | ZIKV replication (RT-qPCR and immunohistochemistry) [2]: affected ZIKV |
| COc1ccc(CC(C)NCC(O)c2ccc(O)c(NC=O)c2)cc1 (centres unmarked) [formoterol] |  | ZIKA inhibition |  |
| O=c1c(-c2ccc(O)cc2)coc2cc(O)cc(O)c12 [genistein] |  | ZIKA inhibition |  |
| Cc1ccc2c(c1)c1c3n2CCNC3CCC1 (centres unmarked) [pirlindole] |  | ZIKA inhibition |  |
| Cc1ccc(C(=O)Nc2ccc(S(=O)(=O)O)c3cc(S(=O)(=O)O)cc(S(=O)(=O)O)c23)cc1NC(=O)c1cccc(NC(=O)Nc2cccc(C(=O)Nc3cc(C(=O)Nc4ccc(S(=O)(=O)O)c5cc(S(=O)(=O)O)cc(S(=O)(=O)O)c45)ccc3C)c2)c1 [suramin, 8,8′-{Carbonylbis[imino-3,1-phenylenecarbonylimino(4-methyl-3,1-phenylene)carbonylimino]}di(1,3,5-naphthalenetrisulfonic acid)] |  | ZIKA inhibition |  |
